Data reported in patent US9422350B2, “Target of EGR1 (TOE1) polypeptides for inhibition of HIV” (priority 2010, dated 2016).
Entries after “also recorded” stand apart in the source; their conditions may differ.

Experiments:
caspase-1 = target: T1, caspase-1 (Homo sapiens, UniProt P29466); test: In vitro digestion of immunoprecipitated TOE1 with recombinant caspase-1, Western blot; assay type: biochemical; conditions: caspase-1 incubation 4 hours at 37° C., FIG. 4
T1 construct: purchased Calbiochem
T1 sequence (P29466 120-297 limits assumed): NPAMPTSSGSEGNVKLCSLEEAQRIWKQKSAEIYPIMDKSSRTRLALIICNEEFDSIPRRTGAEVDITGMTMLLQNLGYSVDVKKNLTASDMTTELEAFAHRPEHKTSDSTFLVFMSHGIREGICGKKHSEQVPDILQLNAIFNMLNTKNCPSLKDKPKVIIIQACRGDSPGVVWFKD
Procedure: FIG. 4: TOE1 is a substrate for caspase-1. (A) Endogenously expressed TOE1 was immunoprecipitated from a lysate of Jurkat cells using the rabbit polyclonal α-TOE1 antibody or pre-immune serum (control=C) and ProteinA/Sepharose™ beads. Immunoprecipitates complexed beads were then incubated with 5 units of recombinant caspase-1 (from Calbiochem) or control buffer, as indicated, for 4 hours at 37° C., and then separated on a 12% Acrylamide/SDS gel and transferred on a PVDF membrane. 50 kDa, 40 kDa and 30 kDa fragments are visible after probing the blot with the monoclonal α-TOE1 antibody. (B) Cell lysates from cells transfected with a TOE1 expression construct were subjected to immunoprecipitation with the rabbit α-TOE1 antibody and ProteinA/Sepharose™ beads.
Since, as described earlier, CAF activity is reported to be dependent upon proteolytic activity, we decided to explore the possibility that TOE1 is a protease substrate. […] The software predicts a single cleavage for the tetrapeptide FTAD at position 214-217 of TOE1. We considered this potential cleavage to warrant further study for several reasons. […] Under our experimental conditions we observed processing by casapse-1 generating fragments of 50, 40, and 30 kDa as detected with a monoclonal anti-TOE1 antibody whose target epitope we have mapped to residues 218-282 (FIG. 4A). […]

[1] = test system: Tat driven HIV LTR expression; test: Tat-driven HIV LTR (TAR) luciferase reporter assay in transfected HeLa cells; assay type: cell-based; conditions: for inhibitory activity of Tat activation of HIV LTR compared with wild-type TOE1: HeLa cells, luciferase, FIG. 7
Procedure: FIG. 3: TOE1 inhibits Tat driven HIV LTR expression. HeLa cells were seeded into 24 wells plates at 30,000 cells/well and then transfected the following day with the indicated constructs at 200 ng total DNA+0.5 μl of FuGENE™ (Roche)/well. 24 hours after transfection the cells were lysed and the luciferase expression was determined by reading Relative Bioluminescent Units (RLU). This graph is representative of multiple experiments performed in triplicates.
FIG. 7: TOE1 processing by caspase-1 enhances its inhibition of HIV LTR transactivation by Tat. (A) HeLa cells were transfected with the indicated constructs, and then luciferase assay was performed as described above. […] All transfection and measurements were performed in triplicate.
FIG. 9: Defining the minimal TOE1 region able to inhibit Tat-induced HIV LTR activation. […] Results are expressed as percentage activation of the HIV LTR referenced to Tat. All transfections and measurements were performed in triplicate, and results are representative of multiple independent experiments.
To test for a potential interaction between TOE1 and Tat, we assessed the effect of TOE1 expression on Tat driven transactivation of the TAR element. We employed a luciferase expression system controlled by the HIV LTR including the TAR sequence.

[2] = test system: Tat-driven HIV LTR activity; test: Co-culture of transfected 293T cells with HeLa cells carrying HIV LTR reporter and Tat; assay type: cell-based; conditions: 293T transfected with construct, co-cultured 24 hours with HeLa (HIV LTR + Tat), FIG. 11
Procedure: FIG. 11. TOE1 can be secreted and inhibits HIV LTR in neighboring cells. HeLa cells were transfected with either HIV LTR alone, or together with Tat as indicated. Separately, 293T cells were transfected with either control empty vector (C), full length TOE1 (TOE1), or a deletion mutant comprising amino acids 283-363 (SEQ ID NO:13) containing the basic region located at 335-348 (283-363). 24 hours following transfection, the transfected 293T cells were placed in co-culture with the transfected HeLa cells to provide the samples. 24 hours after co-culture, samples were assayed for Tat-driven HIV LTR activity.
To determine if TOE1 could be secreted and subsequently taken up by other neighboring cells, we performed co-culture experiments of cells transfected with the HIV LTR reporter and Tat protein in one cell type and either full length TOE1 or the potential protein transduction domain of TOE1 comprising amino acids 283-363 (SEQ ID NO:13) in another cell type. […] Therefore, a minimal domain of TOE1, comprising the basic stretch of amino acids at position 335-347 (SEQ ID NO:15), was able to function as a protein transduction domain as well as an effective inhibitor of Tat transcriptional activation.

Question: With YVAD-CHO as the substance, how does the “inhibition of TOE1 processing by caspase-1” value (caspase-1) read?
Answer: The value was “completely prevents the processing; also recorded: processing was inhibited”.

Question: “335-363 (KRRRRRRREKRKRALLNLPGTQTSGEAKD; K335/D363 Deletion mutant of TOE1)” was tested. Which “inhibition of Tat activation of the HIV LTR by TOE1 deletion mutants” value ([1]; transfected deletion mutants, FIG. 9) did it give?
Answer: Its value is “significantly inhibiting”.

Question: For delN282, which “inhibitory activity of Tat activation of HIV LTR compared with wild-type TOE1” value [1] is on record?
Answer: Its value is “more efficient inhibitor; also recorded: greater inhibition than wild-type TOE1”.

Question: For D195/282A, which “inhibitory activity of Tat activation of HIV LTR compared with wild-type TOE1” value [1] is on record?
Answer: The value was “less effective than wild type TOE1; also recorded: significantly less effective”.

Question: How did the “effect on the LTR in the absence of Tat” value ([1]; HIV LTR luciferase, no Tat) turn out when “TOE1: human TOE1 (target of EGR1) protein, full length, 510 amino acids” was run?
Answer: Its value is “did not have any effect”.

Question: What about the “reduction of Tat transactivation potential” value ([1]; TOE1 coexpressed with Tat, HIV LTR incl. TAR luciferase, different experiments (FIG. 3)) of the same substance?
Answer: The value was 50-80%.

Question: What about the “inhibition of Tat activation of the HIV LTR in neighboring cells” value [2] of the same substance?
Answer: Its value is “effectively inhibiting”.
